Test results reported in US7179825B2, “Retinoic acid mimetic anilides” (Janssen Pharmaceutica N.V., priority 1997, dated 2007).

What was measured:
[1] = tested on: metabolism of retinoic acid in human breast cancer cells; assay: Inhibition of retinoic acid (RA) metabolism (Example C.1); type: cell-based; conditions: MCF-7 human breast cancer cells, 3H-RA as substrate, concentration needed to reduce the amount of metabolites to 50% of the control
Outline: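 Test compound (in 1% DMSO) added at several concentrations to MCF-7 cell suspensions fed ³H-RA, after RA induction of metabolism one day earlier. Scintillation counting of the separated polar metabolite fraction; IC50 = concentration giving 50% of control metabolite level.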

Ovariectomized rats = assay: Vaginal keratinization test on ovariectomized rats (Example C.2); type: in vivo; conditions: estradiol undecylate induced keratinization, per os once daily on days 1-3, active dose = 50% of rats show complete suppression
Outline: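 Value is the lowest oral dose (mg/kg) at which half of tested rats show complete suppression of estradiol undecylate-induced vaginal keratinization by histology. Ovariectomized rats received 100 μg/100 g estradiol undecylate s.c., then compound or PEG 200 vehicle p.o. daily for three days; sacrifice one day later.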

Row | SMILES | IC50 [1] | IC50 ([1]; MCF7) | LAD (lowest active dose) (Ovariectomized rats) | minimal effective dose (Ovariectomized rats; Rattus norvegicus, po, read-out: LAD (lowest active dose))
1 | Cc1ccccc1C(=Cc1ccccc1)C(=O)Nc1ccc(C(C(C)C)n2ccnc2)cc1 (racemic) [Compound 456] | 140 nM |  | >20.00 mg/kg | 
2 | CCOC(=O)CCCC(=O)Nc1ccc(C(C(C)C)n2ccnc2)cc1 (racemic) [Compound 219, (±)-ethyl 5-[[4-[1-(1H-imidazol-1-yl)-2-methylpropyl]phenyl]amino]-5-oxopentanoate] |  | 3.2 nM |  | 20 mg/kg
3 | O=C(C=C(c1ccccc1)c1ccccc1)Nc1ccc(C(c2ccc(Cl)cc2)c2ccccn2)cc1 (stereo not drawn) [Compound 680] | 12.1 nM |  | >20.00 mg/kg | 
4 | CC(C)C(c1ccc(NC(=O)C2CCCCC2)cc1)n1ccnc1 (racemic) [Compound 174] | 1.6 nM |  | 10.00 mg/kg | 
5 | CC(C)C(c1ccc(NC(=O)C(=Cc2ccccc2)C2CCCC2)cc1)n1ccnc1 (racemic) [Compound 472] | 95.1 nM |  | >20.00 mg/kg | 
6 | C/C(=C\c1ccccc1)C(=O)Nc1ccc(C(c2ccccn2)C(C)C)cc1 (stereo not drawn) [Compound 682] | > 100 nM |  | >20.00 mg/kg | 
7 | C/C(=C\c1ccccc1)C(=O)Nc1ccc(C(C(C)C)(C(C)C)n2ccnc2)cc1 [Compound 751] | 67 nM |  | 10.00 mg/kg | 
8 | CCC(CC)C(c1ccc(NC(=O)Nc2cc(F)ccc2F)cc1)n1cncn1 (racemic) [Compound 712] | 0.0043 nM |  | 5.00 mg/kg | 
9 | COc1ccc(NC(=O)Nc2ccc(C(C(C)C)n3ccnc3)cc2)cc1OC (racemic) [Compound 708] | 1.61 nM |  | >5.00 mg/kg | 
10 | CC(C)C(c1ccc(NC(=O)C2CCCCC2C)cc1)n1ccnc1 (racemic) [Compound 202] | 1.84 nM |  | >10.00 mg/kg | 
11 | CCOc1c(F)c(F)c(/C=C(\C)C(=O)Nc2ccc(C(C(C)C)n3ccnc3)cc2)c(F)c1F (racemic) [Compound 606] | 13.6 nM |  | >10.00 mg/kg | 
12 | CCCC(C)C(c1ccc(NC(=O)Cc2ccc(OC)c(OC)c2)cc1)n1cncn1 (racemic) [Compound 639] | 1.68 nM |  | 2.50 mg/kg | 
13 | CC(C)C(c1ccc(NC(=O)C2CCCC2)cc1)n1ccnc1 (racemic) [Compound 192] | 3.34 nM |  | >10.00 mg/kg | 
14 | O=C(Nc1ccc(C(c2ccccc2)n2ccnc2)cc1)Nc1cccc(F)c1 (racemic) [Compound 735] | > 100 nM |  | 10.00 mg/kg | 
15 | C/C(=C\c1ccncc1)C(=O)Nc1ccc(C(C(C)C)n2cncn2)cc1 (stereo not drawn) [Compound 158] | > 100 nM |  | >10.00 mg/kg | 
16 | CC(C)C(c1ccc(NC(=O)C2CC2)cc1)n1ccnc1 (stereo not drawn) [Compound 199] | 7.82 nM |  | >10.00 mg/kg | 
17 | CNC(=S)Nc1ccc(C(C(C)C)n2ccnc2)cc1 (racemic) [Compound 696] | 8.07 nM |  | >10.00 mg/kg | 
18 | CCC(CC)C(c1ccc(NC(=O)c2cnccn2)cc1)n1ccnc1 (racemic) [Compound 27] | 0.232 nM |  | 5.00 mg/kg | 
19 | Cc1nccn1C(c1ccc(NC(=O)Cc2ccc(Cl)cc2)cc1)C(C)C (stereo not drawn) [Compound 695] | > 100 nM |  | >10.00 mg/kg | 
20 | CCC(CC)C(c1ccc(NC(=O)C2CCN(C(=O)c3ccccc3)CC2)cc1)n1ccnc1 (racemic) [Compound 46] | 1.95 nM |  | >2.50 mg/kg | 
21 | Cc1onc(-c2ccccc2)c1C(=O)Nc1ccc(C(C(C)C)n2ccnc2)cc1 (stereo not drawn) [Compound 250] | 14.9 nM |  | >10.00 mg/kg | 
22 | CCC(C)C(c1ccc(NC(=O)Cc2ccc(OC)c(OC)c2)cc1)n1cncn1 (mixture of isomers) [Compound 640] | 2.17 nM |  | >2.50 mg/kg | 

Continued, in another order:

Row | IC50 [1] | IC50 ([1]; MCF7) | SMILES | LAD (lowest active dose) (Ovariectomized rats) | minimal effective dose (Ovariectomized rats; Rattus norvegicus, po, read-out: LAD (lowest active dose))
23 | 0.989 nM |  | CCC(CC)C(c1ccc(NC(=O)Cc2ccc(C)c(C)c2)cc1)n1ccnc1 (racemic) [Compound 112] | 2.50 mg/kg | 
24 | 1.32 nM |  | CCC(C(c1ccc(NC(C)=O)cc1)n1ccnc1)N(C)C (single isomer, unassigned) [Compound 558] | >5.00 mg/kg | 
25 | 25 nM |  | CCC(=Cc1ccccc1)C(=O)Nc1ccc(C(C(C)C)n2ccnc2)cc1 (racemic) [Compound 457] | >20.00 mg/kg | 
26 | 43.1 nM |  | CC(C)C(c1ccc(NC(=O)Cc2ccc(Cl)cc2)cc1)c1cccnc1 (racemic) [Compound 686] | >10.00 mg/kg | 
27 | 98.4 nM |  | CC(C)C(c1ccc(NC(=O)C(C)(C)O)cc1)n1ccnc1 (racemic) [Compound 236] | 5.00 mg/kg | 
28 | 3.8 nM |  | CCCC(=C(C)C(=O)Nc1ccc(C(C(C)C)n2ccnc2)cc1)c1ccccc1 (mixture of isomers) [Compound 519] | >10.00 mg/kg | 
29 | 8.17 nM |  | CCC(CC)C(c1ccc(NC(=O)Cc2cccc(OC)c2OCc2ccccc2)cc1)n1ccnc1 (racemic) [Compound 115] | >2.50 mg/kg | 
30 | > 1000 nM |  | CC(C)C(=CC(=O)Nc1ccc(C(c2ccc(Cl)cc2)n2ccnc2)cc1)c1ccccc1 (mixture of isomers) [Compound 515] | >20.00 mg/kg | 
31 | 7.11 nM |  | CCC(CC)C(c1ccc(NC(=O)Cc2ccc(Oc3ccccc3)cc2)cc1)n1ccnc1 (racemic) [Compound 103] | >2.50 mg/kg | 
32 | 5.15 nM |  | CC(C)C(c1ccc(NC(=O)c2ccc3nnn(C)c3c2)cc1)n1ccnc1 (racemic) [Compound 184] | >10.00 mg/kg | 
33 | 2.7 nM |  | C/C(=C\c1cccc2ccccc12)C(=O)Nc1ccc(C(C(C)C)n2ccnc2)cc1 (racemic) [Compound 593] | >10.00 mg/kg | 
34 | 2.22 nM |  | CC(C)C(c1ccc(NC(=O)CNC(=O)c2ccccc2)cc1)n1ccnc1 (racemic) [Compound 261] | >10.00 mg/kg | 
35 | 5.18 nM |  | CC(C)C(c1ccc(NC(=O)Cc2ccc(N)cc2)cc1)n1ccnc1 (stereo not drawn) [Compound 152] | >5.00 mg/kg | 
36 | 1.08 nM |  | CC(C)(C)C(c1ccc(NC(=O)Cc2ccc(Cl)cc2)cc1)n1ccnc1 (stereo not drawn) [Compound 365] | 10.00 mg/kg | 
37 | 5.55 nM |  | CC(C)C(c1ccc(NC(=O)C2COc3ccccc3C2)cc1)n1ccnc1 (mixture of isomers) [Compound 253] | >5.00 mg/kg | 
38 | 12.4 nM |  | CC(=Cc1ccc(Cl)cc1)C(=O)Nc1ccc(C(C(C)C)n2ccnc2)cc1 (racemic) [Compound 579] | 10.00 mg/kg | 

Row | IC50 [1] | IC50 ([1]; MCF7) | SMILES | LAD (lowest active dose) (Ovariectomized rats) | minimal effective dose (Ovariectomized rats; Rattus norvegicus, po, read-out: LAD (lowest active dose))
39 | 11 nM |  | CC(C)C(c1ccc(NC(N)=Nc2ccccc2)cc1)n1ccnc1 (stereo not drawn) [Compound 743] | >10.00 mg/kg | 
40 | 4.56 nM |  | Cc1ccc(CC(=O)Nc2ccc(C(C(C)C)n3cncn3)cc2)cc1 (stereo not drawn) [Compound 133] | >5.00 mg/kg | 
41 | 2.36 nM |  | CC(C)C(c1ccc(NC(=O)c2cc3ccccc3s2)cc1)n1ccnc1 (racemic) [Compound 168] | 10.00 mg/kg | 
42 | 0.531 nM |  | CC(C)C(c1ccc(NC(=O)c2ccco2)cc1)n1ccnc1 (racemic) [Compound 169] | 10.00 mg/kg | 
43 | 1.34 nM |  | CC(C)C(c1ccc(NC(=O)Cc2ccc(F)cc2)cc1)n1ccnc1 (racemic) [Compound 653] | 5.00 mg/kg | 
44 | 2.34 nM |  | CC(C)C(c1ccc(NC(=O)Cc2cccc(C(F)(F)F)c2)cc1)n1ccnc1 (racemic) [Compound 654] | 5.00 mg/kg | 
45 | 1 nM |  | CCC(CC)C(c1ccc(NC(=O)COc2ccccc2OC)cc1)n1ccnc1 (racemic) [Compound 37] | 5.00 mg/kg | 
46 | 1.04 nM |  | CCC(CC)C(c1ccc(NC(=O)Cc2ccc3c(c2)C(C)(C)CCC3(C)C)cc1)n1ccnc1 (racemic) [Compound 38] | 5.00 mg/kg | 
47 | 6.51 nM |  | COc1cccc(/C=C(\C)C(=O)Nc2ccc(C(C(C)C)n3ccnc3)cc2)c1 (stereo not drawn) [Compound 584] | 10.00 mg/kg | 
48 | > 100 nM |  | O=C(Cc1ccc(Cl)cc1)Nc1ccc(C(c2ccc(Cl)cc2)n2ccnc2)cc1 (racemic) [Compound 356] | >10.00 mg/kg | 
49 | 2.43 nM |  | CC(C)C(c1ccc(NC(=O)c2cccc3nccnc23)cc1)n1ccnc1 (racemic) [Compound 233] | >10.00 mg/kg | 
50 | > 100 nM |  | CC(c1ccc(NC(=O)Cc2ccc(Cl)cc2)cc1)n1ccnc1 (racemic) [Compound 358] | >10.00 mg/kg | 
51 | 7.45 nM |  | Cc1cccc(NC(=O)Nc2ccc(C(C(C)C)n3ccnc3)cc2)c1 (racemic) [Compound 736] | >10.00 mg/kg | 
52 | 12 nM |  | CC(C)C(c1ccc(NC(=S)Nc2ccccc2F)cc1)n1ccnc1 (racemic) [Compound 700] | 5.00 mg/kg | 
53 | 16.9 nM |  | CC(C)C(c1ccc(NC(=O)C(F)=Cc2ccccc2)cc1)n1ccnc1 (racemic) [Compound 461] | 10.00 mg/kg | 
54 | 17.7 nM |  | CC(=Cc1ccccc1)C(=O)Nc1ccc(C(C(C)C)n2ccnc2)cc1 (single isomer, unassigned) [Compound 459] | 20.00 mg/kg | 
